Reference: paper PMC11952846, “The sterol-regulating human ARV1 binds cholesterol and phospholipids through its conserved ARV1 homology domain” (The Journal of Biological Chemistry, 2025)
Changes are numbered by the printed parent chain.

How the values were obtained:
[1] = target: T1, GST-ARV1-N98 (N-terminal 98 amino acids, AHD) (Homo sapiens, UniProt Q9H2C2); test: Protein-lipid liposome binding assay (ultracentrifugation, Western blot); settings: protein detected in final pellet
T1 construct: Expresses amino-terminal 98 amino acids of ARV1; made in house; host or cells: E. coli BL21 (pGEX-4T1)
T1 sequence (Q9H2C2 1-98): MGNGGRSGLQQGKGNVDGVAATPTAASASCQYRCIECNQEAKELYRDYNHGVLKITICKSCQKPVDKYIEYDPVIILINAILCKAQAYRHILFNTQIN
Method: Lyophilized lipids were reconstituted in chloroform at 10 mg/ml and stored in glass tubes with Teflon tops at −20 °C until use. One milliliter of 10 mg/ml stock was dried under a stream of nitrogen in a glass tube until a lipid cake/film was formed. The lipid cake was then rehydrated in BLT rehydration buffer (5 mM Tris/HCl, pH 7.4, containing 150 mM NaCl) to a concentration of 1 mg/ml. Lipid suspensions were subjected to three freeze/thaw cycles using a dry ice ethanol/[…] water bath to encapsulate the buffer and improve liposome formation. The suspension and lipid extruder were equilibrated to temperature for 10 min and liposomes were extruded using […] polycarbonate membranes (Avestin). Liposomes were made by mixing stock lipid PL (1 mg/ml) with PC (10 mg/ml).
Cholesterol composition liposomes were rehydrated with cholesterol rehydration buffer (10 mM Hepes, pH 7.4, containing 150 mM KCl).
Liposomes were serial diluted in floatation buffer (100 mM NaCl, 2 mM EDTA, pH 5.5) to a final concentration of 0.1 mg/ml. Nine hundred microliters of liposome solution was placed in clear ultracentrifuge tubes and mixed with 100 μl of 0.01 μg/ml of protein. The liposome/protein solution was incubated at room temperature for 1 h with occasional shaking. An initial 100 μl of liposome/protein solution (liposomes) was removed and the remaining 900 μl was centrifuged at 50,000g for 20 min at 4 °C. The pellet was resuspended in 800 μl of fresh floatation buffer, centrifuged as above, and 800 μl of supernatant was removed (wash 1). This was repeated a second time and again 800 μl of supernatant was removed (wash 2). The final pellet was resuspended in 100 μl of floatation buffer plus SDS treatment buffer (pellet). Thirty microliters of each fraction was run on a 15% SDS-PAGE gel and probed with an anti-GST monoclonal antibody at a 1:1500 dilution.

[2] = target: T2, 6XHIS-ARV1-N98 K84A (Homo sapiens, UniProt Q9H2C2, K84A); test: Lipid overlay far western, site-directed mutant; type: binding; settings: compared to the ARV1-N98 protein
T2 construct: Expressing amino-terminal 98 amino acids of ARV1; made in house; host or cells: E. coli BL21 (pET-28a(+))
T2 sequence (Q9H2C2 1-98 K84A): T1 sequence (Q9H2C2 1-98) with K84A
Method: (§1) Lipid overlays were blocked in TBST-BSA (100 mM Tris–HCl buffer, pH 7.5, 150 mM NaCl, 0.5% Tween 20, 3% bovine serum albumin) for 1 h and subsequently washed eight separate times with TBST for 2 min each. Overlays were incubated with 0.5 μg/ml GST-tagged or 6XHIS-tagged proteins in 3% TBST-BSA buffer containing 0.1% Triton X-100, for 1 h at room temperature and washed as above. Overlays were incubated with either anti-GST or anti-6XHIS monoclonal antibodies at a 1:1000 dilution in TBST-BSA for 1 h at room temperature followed by eight washes in TBST. Overlays were visualized using Immobilon Western Chemiluminescent horseradish peroxidase substrate and protein–lipid interaction was detected using a GE ImageQuant LAS 3000 imager.

[3] = target: GST-Annexin A2 (Homo sapiens, UniProt P07355); test: Lipid overlay far western (positive control protein); type: binding
Chain of GST-Annexin A2 (P07355 whole entry): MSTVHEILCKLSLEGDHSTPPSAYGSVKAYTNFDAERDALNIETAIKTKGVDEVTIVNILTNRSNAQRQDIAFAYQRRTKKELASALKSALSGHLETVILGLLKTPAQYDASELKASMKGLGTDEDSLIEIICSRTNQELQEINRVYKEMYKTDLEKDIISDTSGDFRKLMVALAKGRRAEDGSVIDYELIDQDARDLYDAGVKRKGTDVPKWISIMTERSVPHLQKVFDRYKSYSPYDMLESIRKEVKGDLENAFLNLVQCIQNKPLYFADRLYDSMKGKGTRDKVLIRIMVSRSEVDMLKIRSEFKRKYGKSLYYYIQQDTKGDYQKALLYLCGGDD
Method: as §1

[4] = target: T3, 6XHIS-N98 K67A (Homo sapiens, UniProt Q9H2C2, K67A); test: HTRF phospholipid lipid-binding assay, mutant; design: key: NC, no change; settings: biotinylated lipid; NC = no change vs N98
T3 construct: made in house; host or cells: E. coli BL21
T3 sequence (Q9H2C2 1-98 K67A): T1 sequence (Q9H2C2 1-98) with K67A
Excerpt: (§2) An HTRF assay was developed for 6XHIS-ARV1-N98-lipid binding. HTRF measures analyte interactions through fluorescence resonance energy transfer technology and time-resolved measurements ([53]). The interaction between two molecules can be quantified through binding each individual molecule involved with a fluorescent label and then analyzing the transfer of energy between the initial donor fluorophore and the secondary acceptor fluorophore. Following excitation of the first fluorophore, transfer of energy can only occur if the molecules bound with the fluorescent tags are within proximity to each other.
(§3) Assays were plated in 384-well flat bottom microplates (Greiner Bio, catalog #784075-25). Proteins were diluted using binding buffer (20 mM Hepes buffer, pH 7.2, containing 0.1% BSA, and 0.01% Tween20) to a stock concentration of 0.75 μM, and biotinylated phospholipids were dispensed, dried under nitrogen gas, and resuspended in binding buffer to a stock concentration of 50 μM. The lipid stock solution was diluted by 1:2 for a series of 12 serial dilutions. For the assay, in sequential order, 6 μl of binding buffer was loaded into the plate in triplicate for each dilution of phospholipid. To this, 2 μl of 0.75 μM 6XHIS-ARV1-N98 was added, followed by 2 μl of biotinylated phospholipid. Immediately following each addition loaded into the plate, the plate was centrifuged for 1 min at 1000 rpm to bring the contents to the bottom of the well. Next, detection antibodies were mixed with detection buffer (20 mM Hepes buffer, pH 8.5, containing 0.01% BSA and 200 mM KF). Antibodies were a MAb anti-6XHIS Europium kryptate-conjugated D1 fluorescent antibody (Cisbio, #61HISKLA) and Streptavidin-conjugated d2 fluorescent antibody (Cisbio, #610SADLA). For each 1000 μl of detection buffer, 5 μl of each antibody was added just prior to loading 10 μl into each well. The plate was again centrifuged for 1 min at 1000 rpm and stored in a sealed container overnight, in the dark. Plates were read on a PerkinElmer EnVision Xcite Multilabel plate reader.
(§4) Curves were logarithmically transformed and normalized to a common scale before being fit with a nonlinear regression of the agonist against the normalized response. This generated half maximal effective concentration values (EC50; M) that could then be compared between different lipids. In the context of our study, EC50 values were defined as a measure of protein sensitivity to binding to a particular lipid within a dose response curve. For phospholipid competition analysis, IC50; M values were determined using nonlinear regression of the inhibitor against normalized response.

[5] = target: T4, 6XHIS-N98 K84A (Homo sapiens, UniProt Q9H2C2, K84A); test: HTRF phospholipid lipid-binding assay, mutant; design: key to Bio-PL, EC50, M ± S.D.: NC, no change; settings: biotinylated lipid, NC = no change vs N98
T4 construct: made in house; host or cells: E. coli BL21
T4 sequence (Q9H2C2 1-98 K84A): T1 sequence (Q9H2C2 1-98) with K84A
Excerpt: as §2, §3, §4

[6] = target: T5, 6XHIS-ARV1-N98 K67A (Homo sapiens, UniProt Q9H2C2, K67A); test: Lipid overlay far western, site-directed mutant; type: binding; settings: compared to the ARV1-N98 protein
T5 construct: Expressing amino-terminal 98 amino acids of ARV1; made in house; host or cells: E. coli BL21 (pET-28a(+))
T5 sequence (Q9H2C2 1-98 K67A): T1 sequence (Q9H2C2 1-98) with K67A
Method: as §1

[7] = lipid-embedded membrane strips, incl. sphingolipid strip

Row | binding to PC:PL liposomes [1] | EC50 ([5]; read-out: Bio-PL, EC50, M ± S.D.) [µM] | Compound | change of lipid-protein interaction [2] | lipid-protein interaction [3, 7] | Bio-PL, EC50, M ± S.D. [4] | Bio-PL, EC50, M ± S.D. [5] | change of lipid-protein interaction [6] | lipid-protein interaction ([3]; PIP lipid membrane strip, 100pmol-1.56pmol per spot)
1 | bound |  | CCCCC/C=C\C/C=C\CCCCCCCC(=O)OC[C@H](COP(=O)(O)OCC(O)COP(=O)(O)OC[C@@H](COC(=O)CCCCCCC/C=C\C/C=C\CCCCC)OC(=O)CCCCCCC/C=C\C/C=C\CCCCC)OC(=O)CCCCCCC/C=C\C/C=C\CCCCC (some centres unmarked) [CL, cardiolipin] | weakened | interacted |  |  |  | 
2 | not |  | CCCCCCCCCCCCCCCC(=O)OC[C@H](COP(=O)(O)O)OC(=O)CCCCCCCCCCCCCCC [PA, phosphatidic acid] |  | weakly | NC | NC |  | 
3 |  |  | CCCCCC(=O)O[C@H](COC(=O)CCCCCNC(=O)CCCC[C@@H]1SC[C@@H]2NC(=O)N[C@@H]21)COP(=O)(O)O[C@H]1[C@H](O)[C@@H](O)[C@H](OP(=O)(O)O)[C@@H](O)[C@H]1O [reference compound] | increased interactions | interacted | weakened |  | increased interactions | strongest interactions
4 |  |  | phosphatidylcholine [PC] |  |  | NC | NC |  | 
5 | Neither | 0.21 | phosphatidylethanolamine [PE] |  |  |  |  | interacted weakly | 

Row | Compound | binding to PC:PL liposomes [1] | EC50 ([5]; read-out: Bio-PL, EC50, M ± S.D.) [µM] | change of lipid-protein interaction [2] | lipid-protein interaction [3, 7] | Bio-PL, EC50, M ± S.D. [4] | Bio-PL, EC50, M ± S.D. [5] | change of lipid-protein interaction [6] | lipid-protein interaction ([3]; PIP lipid membrane strip, 100pmol-1.56pmol per spot)
6 | CCCCCCCC/C=C\CCCCCCCC(=O)OC[C@H](COP(=O)(O)OCC(O)CO)OC(=O)CCCCCCC/C=C\CCCCCCCC (some centres unmarked) [PG, phosphatidylglycerol] | bound |  | weakened |  | reduced PG binding | reduced | weakened | 
7 | CCCCCCCCCCCCCCCCCC(=O)OC[C@H](COP(=O)(O)OC[C@H](N)C(=O)O)OC(=O)CCCCCCCCCCCCCCCCC [PS, phosphatidylserine] | bound |  |  | interacted | NC | NC |  | 
